Results published in PubChem BioAssay AID2060882 (Molecular Pharmacology Branch, DTP, NCI, 2025).

Test system: 898857-211-R-J1-PDC complex spheroids, growth % test/control
Assay: Anticancer human tumor 898857-211-R-J1-PDC patient-derived melanoma cell line growth inhibition [RAS]
Conditions: for IC50: curve of first compound; for viability, T/C: stronger effect = lower value
Method in brief: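 Multi-cell-type spheroids: tumor cells plus HUVEC endothelial cells and mesenchymal stem cells. RAS-pathway inhibitors were combined with targeted agents, each dosed in half-log steps down from clinical Cmax, or from 10 microM when Cmax was unknown.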

[1] = second compound 0.000949 µM, first compound 0.0316 µM
[2] = second compound 0.000949 µM, first compound 0.1 µM
[3] = second compound 0.000949 µM, first compound 0.316 µM
[4] = second compound 0.000949 µM, first compound 1 µM
[5] = second compound 0.003 µM, first compound 0.0316 µM
[6] = second compound 0.003 µM, first compound 0.1 µM
[7] = second compound 0.003 µM, first compound 0.316 µM
[8] = second compound 0.003 µM, first compound 1 µM
[9] = second compound 0.00949 µM, first compound 0.0316 µM
[10] = second compound 0.00949 µM, first compound 0.1 µM
[11] = second compound 0.00949 µM, first compound 0.316 µM
[12] = second compound 0.00949 µM, first compound 1 µM
[13] = second compound 0.03 µM, first compound 0.0316 µM
[14] = second compound 0.03 µM, first compound 0.1 µM
[15] = second compound 0.03 µM, first compound 0.316 µM
[16] = second compound 0.03 µM, first compound 1 µM
[17] = second compound 0.0949 µM, first compound 0.0316 µM
[18] = second compound 0.0949 µM, first compound 0.1 µM
[19] = second compound 0.0949 µM, first compound 0.316 µM
[20] = second compound 0.0949 µM, first compound 1 µM
[21] = second compound 0.3 µM, first compound 0.0316 µM
[22] = second compound 0.3 µM, first compound 0.1 µM
[23] = second compound 0.3 µM, first compound 0.316 µM
[24] = second compound 0.3 µM, first compound 1 µM
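Also: spheroids exposed to compound for seven days before readout.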
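For viability, T/C in this document: 100% = DMSO vehicle control wells.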

## CC(Nc1ccc2c(c1)OCCn1cc(N3C(=O)OCC3C(F)F)nc1-2)C(N)=O (centres undefined) + CCn1c(-c2cc(N3CCN(C)CC3)cnc2C(C)OC)c2c3cc(ccc31)-c1csc(n1)CC(NC(=O)C1CC1C)C(=O)N1CCCC(N1)C(=O)OCC(C)(C)C2
Second compound 0.000949 µM
  IC50: > 10 µM
Second compound 0.003 µM
  IC50: > 10 µM
Second compound 0.00949 µM
  IC50: 6.62 µM
Second compound 0.03 µM
  IC50: 9.25 µM
Second compound 0.0949 µM
  IC50: 9.6 µM
Second compound 0.3 µM
  IC50: 8.39 µM
[1]
  viability, T/C: 102%
[2]
  viability, T/C: 90.3%
[3]
  viability, T/C: 96%
[4]
  viability, T/C: 73.8%
Second compound 0.000949 µM, first compound 3.16 µM
  viability, T/C: 66%
Second compound 0.000949 µM, first compound 10 µM
  viability, T/C: 53.2%
[5]
  viability, T/C: 93.4%
[6]
  viability, T/C: 95.7%
[7]
  viability, T/C: 83.6%
[8]
  viability, T/C: 76.4%
Second compound 0.003 µM, first compound 3.16 µM
  viability, T/C: 73.3%
Second compound 0.003 µM, first compound 10 µM
  viability, T/C: 52.2%
[9]
  viability, T/C: 82.5%
[10]
  viability, T/C: 80.4%
[11]
  viability, T/C: 80.2%
[12]
  viability, T/C: 73.5%
Second compound 0.00949 µM, first compound 3.16 µM
  viability, T/C: 63%
Second compound 0.00949 µM, first compound 10 µM
  viability, T/C: 42.7%
[13]
  viability, T/C: 103%
[14]
  viability, T/C: 91.5%
[15]
  viability, T/C: 80.9%
[16]
  viability, T/C: 72.6%
Second compound 0.03 µM, first compound 3.16 µM
  viability, T/C: 68.5%
Second compound 0.03 µM, first compound 10 µM
  viability, T/C: 45.5%
[17]
  viability, T/C: 106%
[18]
  viability, T/C: 85.1%
[19]
  viability, T/C: 95.3%
[20]
  viability, T/C: 80.5%
Second compound 0.0949 µM, first compound 3.16 µM
  viability, T/C: 67.8%
Second compound 0.0949 µM, first compound 10 µM
  viability, T/C: 48.1%
[21]
  viability, T/C: 98.3%
[22]
  viability, T/C: 99.3%
[23]
  viability, T/C: 84.2%
[24]
  viability, T/C: 71.7%
Second compound 0.3 µM, first compound 3.16 µM
  viability, T/C: 66.1%
Second compound 0.3 µM, first compound 10 µM
  viability, T/C: 46.4%

## O=C(c1ccc(F)c(F)c1Nc1ccc(I)cc1F)N1CC(O)([C@@H]2CCCCN2)C1 + CCn1c(-c2cc(N3CCN(C)CC3)cnc2C(C)OC)c2c3cc(ccc31)-c1csc(n1)CC(NC(=O)C1CC1C)C(=O)N1CCCC(N1)C(=O)OCC(C)(C)C2
Second compound 0.000949 µM
  IC50: < 0.00316 µM
Second compound 0.003 µM
  IC50: < 0.00316 µM
Second compound 0.00949 µM
  IC50: < 0.00316 µM
Second compound 0.03 µM
  IC50: < 0.00316 µM
Second compound 0.0949 µM
  IC50: < 0.00316 µM
Second compound 0.3 µM
  IC50: < 0.00316 µM
Second compound 0.000949 µM, first compound 0.00316 µM
  viability, T/C: 39.8%
Second compound 0.000949 µM, first compound 0.01 µM
  viability, T/C: 24.2%
[1]
  viability, T/C: 16.8%
[2]
  viability, T/C: 13.9%
[3]
  viability, T/C: 13%
[4]
  viability, T/C: 9.63%
Second compound 0.003 µM, first compound 0.00316 µM
  viability, T/C: 33.1%
Second compound 0.003 µM, first compound 0.01 µM
  viability, T/C: 21.3%
[5]
  viability, T/C: 17.5%
[6]
  viability, T/C: 12.4%
[7]
  viability, T/C: 10.3%
[8]
  viability, T/C: 6.63%
Second compound 0.00949 µM, first compound 0.00316 µM
  viability, T/C: 32%
Second compound 0.00949 µM, first compound 0.01 µM
  viability, T/C: 20.5%
[9]
  viability, T/C: 17.8%
[10]
  viability, T/C: 14.2%
[11]
  viability, T/C: 11.3%
[12]
  viability, T/C: 3.23%
Second compound 0.03 µM, first compound 0.00316 µM
  viability, T/C: 24.2%
Second compound 0.03 µM, first compound 0.01 µM
  viability, T/C: 20.7%
[13]
  viability, T/C: 17.8%
[14]
  viability, T/C: 12.8%
[15]
  viability, T/C: 7.8%
[16]
  viability, T/C: 2.22%
Second compound 0.0949 µM, first compound 0.00316 µM
  viability, T/C: 24.6%
Second compound 0.0949 µM, first compound 0.01 µM
  viability, T/C: 20.2%
[17]
  viability, T/C: 14.7%
[18]
  viability, T/C: 10.4%
[19]
  viability, T/C: 3.52%
[20]
  viability, T/C: 1.46%
Second compound 0.3 µM, first compound 0.00316 µM
  viability, T/C: 24.1%
Second compound 0.3 µM, first compound 0.01 µM
  viability, T/C: 19.1%
[21]
  viability, T/C: 13.3%
[22]
  viability, T/C: 8.51%
[23]
  viability, T/C: 3.03%
[24]
  viability, T/C: 1.17%
